Source: article doi:10.1101/2020.09.17.301234v1, “Molecular and functional characterization of buffalo nasal epithelial odorant binding proteins and their structural insights by in-silico and biochemical approach” (biorxiv, 2020)

Tests used:
Format in all cases: binding, Bubalus bubalis
[1] = biological target: T1, OBP1a (bnOBP isoform 1a; also printed 1OBPa); test: competitive 1-NPN displacement fluorescence; conditions: 2 µM protein, 2 µM 1-NPN, 50 mM Tris-HCl, 300 mM NaCl, pH 8.0; competitive with 1-NPN
T1 construct: gene OBP
Description: competitive 1-NPN displacement fluorescence on OBP1a (bnOBP isoform 1a; also printed 1OBPa)

[2] = biological target: T1, OBP1a (bnOBP isoform 1a; also printed 1OBPa); test: competitive 1-NPN displacement fluorescence; conditions: 2 µM protein, 2 µM 1-NPN, 50 mM Tris-HCl, 300 mM NaCl, pH 8.0; competitive with 1-NPN; remark: listed apart in the source
[3] = biological target: T1, OBP1a (bnOBP isoform 1a; also printed 1OBPa); test: fluorescence titration; conditions: 50 mM Tris-HCl, 300 mM NaCl, pH 8.0; 2 µM protein; fluorescent probe; read-out: dissociation constant

Row | Ki [1] | Ki [2] | Structure (SMILES) | Kd [3]
1 | 266 µM | 3.5 µM | Cc1ccc(O)cc1 [p-cresol] | –
2 | – | – | c1ccc(Nc2cccc3ccccc23)cc1 [N-phenyl-1-naphthylamine] | 0.7 µM
3 | – | 4.2 µM | CCCCCCCC/C=C\CCCCCCCC(=O)O [oleic acid] | –
